Reference: US20250051277A1, “DELIVERY OF THERAPEUTIC ALKALOID COMPOUNDS” (Sensorium Therapeutics, Inc., priority 2021, published 2025)
Where two headings read alike, the source gives them in different places.

Experiments:
[1] = format: physicochemical; conditions: DI water, 25° C., 0.5 mM
[2] = Plasma Stability Assay of Example A3, mouse plasma; conditions: 5 μM, 37° C., % of prodrug compound remaining
[3] = Plasma Stability Assay of Example A3, human plasma; conditions: 5 μM, 37° C., % of prodrug compound remaining
[4] = format: physicochemical; conditions: SGF with pepsin, pH 1.5, 37° C., 0.5 mM
[5] = 5 μM

COc1ccc([C@@]23CCC(OC(=O)C(c4ccccc4)c4ccccc4)=C[C@@H]2N(C)CC3)cc1OC [Compound 306, [(3aS,7aS)-3a-(3,4-dimethoxyphenyl)-1-methyl-3,4,5,7a-tetrahydro-2H-indol-6-yl]2,2-diphenylacetate]
Condition 2 Conversion (%) ([1]; time 1 min): 0% | Condition 2 Conversion (%) ([1]; time 5 min): 0% | Condition 2 Conversion (%) ([1]; time 30 min): 0% | Condition 2 Conversion (%) ([1]; time 1 h): 0% | Condition 2 Conversion (%) ([1]; time 4 h): 0% | Condition 2 Conversion (%) ([1]; time 24 h): 0% | Mouse Plasma Prodrug (%) ([2]; 0 min): 100.0% | Mouse Plasma Prodrug (%) ([2]; 15 min): 6.2% | Mouse Plasma Prodrug (%) ([2]; 60 min): 1.6% | Mouse Plasma Prodrug (%) ([2]; 120 min): 0.4% | Mouse Plasma Prodrug (%) ([2]; 240 min): 0.1% | Human Plasma Prodrug (%) ([3]; 0 min): 100.0% | Human Plasma Prodrug (%) ([3]; 15 min): 89.5% | Human Plasma Prodrug (%) ([3]; 30 min): 75.2% | Human Plasma Prodrug (%) ([3]; 60 min): 53.7% | Human Plasma Prodrug (%) ([3]; 120 min): 32.4% | Human Plasma Prodrug (%) ([3]; 240 min): 13.8% | Condition 1 Conversion (%) ([4]; time 1 min): 0% | Condition 1 Conversion (%) ([4]; time 5 min): 0% | Condition 1 Conversion (%) ([4]; time 30 min): 0% | Condition 1 Conversion (%) ([4]; time 1 h): 0% | Condition 1 Conversion (%) ([4]; time 4 h): 0% | Condition 1 Conversion (%) ([4]; time 24 h): 0%

COc1ccc([C@@]23CCC(OC(=O)c4cccc(N(C)C)c4)=C[C@@H]2N(C)CC3)cc1OC [Compound 307, [(3aS,7aS)-3a-(3,4-dimethoxyphenyl)-1-methyl-3,4,5,7a-tetrahydro-2H-indol-6-yl]3-(dimethylamino)benzoate]
Mouse Plasma Compound 001 (%) ([5]; 15 min): 73.4% | Mouse Plasma Compound 001 (%) ([5]; 30 min): 81.1% | Mouse Plasma Compound 001 (%) ([5]; 60 min): 86.3% | Mouse Plasma Compound 001 (%) ([5]; 120 min): 79.9% | Mouse Plasma Compound 001 (%) ([5]; 240 min): 79.0% | Mouse Plasma Prodrug (%) ([2]; 0 min): 100.0% | Mouse Plasma Prodrug (%) ([2]; 15 min): 18.1% | Mouse Plasma Prodrug (%) ([2]; 30 min): 3.8% | Mouse Plasma Prodrug (%) ([2]; 60 min): 0.1% | Mouse Plasma Prodrug (%) ([2]; 120 min): 0.0% | Mouse Plasma Prodrug (%) ([2]; 240 min): 0.0% | Human Plasma Prodrug (%) ([3]; 0 min): 100.0% | Human Plasma Prodrug (%) ([3]; 15 min): 88.5% | Human Plasma Prodrug (%) ([3]; 30 min): 87.6% | Human Plasma Prodrug (%) ([3]; 60 min): 83.0% | Human Plasma Prodrug (%) ([3]; 120 min): 71.1% | Human Plasma Prodrug (%) ([3]; 240 min): 57.5%

COc1ccc([C@@]23CCC(OC(=O)C(C)(C)C)=C[C@@H]2N(C)CC3)cc1OC [Compound 309, [(3aS,7aS)-3a-(3,4-dimethoxyphenyl)-1-methyl-3,4,5,7a-tetrahydro-2H-indol-6-yl]2,2-dimethylpropanoate]
Condition 2 Conversion (%) ([1]; time 1 min): 0% | Condition 2 Conversion (%) ([1]; time 5 min): 0% | Condition 2 Conversion (%) ([1]; time 30 min): 0% | Condition 2 Conversion (%) ([1]; time 1 h): 0% | Condition 2 Conversion (%) ([1]; time 4 h): 0% | Condition 2 Conversion (%) ([1]; time 24 h): 0% | Mouse Plasma Compound 001 (%) ([5]; 15 min): 61.7% | Mouse Plasma Compound 001 (%) ([5]; 30 min): 63.7% | Mouse Plasma Compound 001 (%) ([5]; 60 min): 62.6% | Mouse Plasma Compound 001 (%) ([5]; 120 min): 63.2% | Mouse Plasma Compound 001 (%) ([5]; 240 min): 60.9% | Mouse Plasma Prodrug (%) ([2]; 0 min): 100.0% | Mouse Plasma Prodrug (%) ([2]; 15 min): 34.6% | Mouse Plasma Prodrug (%) ([2]; 30 min): 24.9% | Mouse Plasma Prodrug (%) ([2]; 60 min): 8.2% | Mouse Plasma Prodrug (%) ([2]; 120 min): 0.0% | Mouse Plasma Prodrug (%) ([2]; 240 min): 0.0% | Human Plasma Prodrug (%) ([3]; 0 min): 100.0% | Human Plasma Prodrug (%) ([3]; 15 min): 64.5% | Human Plasma Prodrug (%) ([3]; 30 min): 41.4% | Human Plasma Prodrug (%) ([3]; 60 min): 16.5% | Human Plasma Prodrug (%) ([3]; 120 min): 3.6% | Human Plasma Prodrug (%) ([3]; 240 min): 2.0% | Condition 1 Conversion (%) ([4]; time 1 min): 0% | Condition 1 Conversion (%) ([4]; time 5 min): 0% | Condition 1 Conversion (%) ([4]; time 30 min): 0% | Condition 1 Conversion (%) ([4]; time 1 h): 0% | Condition 1 Conversion (%) ([4]; time 4 h): 0% | Condition 1 Conversion (%) ([4]; time 24 h): 0%

COc1ccc([C@@]23CCC(OC(=O)c4ccc(F)cc4)=C[C@@H]2N(C)CC3)cc1OC [Compound 353, (3aS,7aS)-3a-(3,4-dimethoxyphenyl)-1-methyl-2,3,3a,4,5,7a-hexahydro-1H-indol-6-yl4-fluorobenzoate]
Mouse Plasma Compound 001 (%) ([5]; 0 min): 47.7% | Mouse Plasma Compound 001 (%) ([5]; 15 min): 55% | Mouse Plasma Compound 001 (%) ([5]; 30 min): 51.6% | Mouse Plasma Compound 001 (%) ([5]; 60 min): 50.6% | Mouse Plasma Compound 001 (%) ([5]; 120 min): 46.4% | Mouse Plasma Compound 001 (%) ([5]; 240 min): 29.3% | Mouse Plasma Prodrug (%) ([2]; 0 min): 100% | Mouse Plasma Prodrug (%) ([2]; 15 min): 0% | Mouse Plasma Prodrug (%) ([2]; 30 min): 0% | Mouse Plasma Prodrug (%) ([2]; 60 min): 0% | Mouse Plasma Prodrug (%) ([2]; 120 min): 0% | Mouse Plasma Prodrug (%) ([2]; 240 min): 0% | Human Plasma Prodrug (%) ([3]; 0 min): 100% | Human Plasma Prodrug (%) ([3]; 15 min): 95.4% | Human Plasma Prodrug (%) ([3]; 30 min): 90.1% | Human Plasma Prodrug (%) ([3]; 60 min): 79.7% | Human Plasma Prodrug (%) ([3]; 120 min): 55.3% | Human Plasma Prodrug (%) ([3]; 240 min): 39.6%

COc1ccc([C@@]23CCC(OC(=O)c4ccc(C#N)cc4)=C[C@@H]2N(C)CC3)cc1OC [Compound 354, (3aS,7aS)-3a-(3,4-dimethoxyphenyl)-1-methyl-2,3,3a,4,5,7a-hexahydro-1H-indol-6-yl4-cyanobenzoate]
Mouse Plasma Compound 001 (%) ([5]; 0 min): 33.27% | Mouse Plasma Compound 001 (%) ([5]; 15 min): 32.79% | Mouse Plasma Compound 001 (%) ([5]; 30 min): 32.69% | Mouse Plasma Compound 001 (%) ([5]; 60 min): 29.45% | Mouse Plasma Compound 001 (%) ([5]; 120 min): 27.14% | Mouse Plasma Compound 001 (%) ([5]; 240 min): 20.12% | Mouse Plasma Prodrug (%) ([2]; 0 min): 100% | Mouse Plasma Prodrug (%) ([2]; 15 min): 5% | Mouse Plasma Prodrug (%) ([2]; 30 min): 7% | Mouse Plasma Prodrug (%) ([2]; 60 min): 5% | Mouse Plasma Prodrug (%) ([2]; 120 min): 4% | Mouse Plasma Prodrug (%) ([2]; 240 min): 0% | Human Plasma Prodrug (%) ([3]; 0 min): 100% | Human Plasma Prodrug (%) ([3]; 15 min): 93% | Human Plasma Prodrug (%) ([3]; 30 min): 72% | Human Plasma Prodrug (%) ([3]; 60 min): 42% | Human Plasma Prodrug (%) ([3]; 120 min): 13% | Human Plasma Prodrug (%) ([3]; 240 min): 1%

COc1ccc([C@@]23CCC(OC(=O)c4cccc(C(C)(C)C)c4)=C[C@@H]2N(C)CC3)cc1OC [Compound 375, (3aS,7aS)-3a-(3,4-dimethoxyphenyl)-1-methyl-2,3,3a,4,5,7a-hexahydro-1H-indol-6-yl3-(tert-butyl)benzoate]
Mouse Plasma Compound 001 (%) ([5]; 0 min): 41.82% | Mouse Plasma Compound 001 (%) ([5]; 15 min): 45.54% | Mouse Plasma Compound 001 (%) ([5]; 30 min): 45.99% | Mouse Plasma Compound 001 (%) ([5]; 60 min): 41.28% | Mouse Plasma Compound 001 (%) ([5]; 120 min): 42.28% | Mouse Plasma Compound 001 (%) ([5]; 240 min): 29.74% | Mouse Plasma Prodrug (%) ([2]; 0 min): 100% | Mouse Plasma Prodrug (%) ([2]; 15 min): 11% | Mouse Plasma Prodrug (%) ([2]; 30 min): 2% | Mouse Plasma Prodrug (%) ([2]; 60 min): 0% | Mouse Plasma Prodrug (%) ([2]; 120 min): 0% | Mouse Plasma Prodrug (%) ([2]; 240 min): 0% | Human Plasma Prodrug (%) ([3]; 0 min): 100% | Human Plasma Prodrug (%) ([3]; 15 min): >99% | Human Plasma Prodrug (%) ([3]; 30 min): >99% | Human Plasma Prodrug (%) ([3]; 60 min): 97% | Human Plasma Prodrug (%) ([3]; 120 min): 57% | Human Plasma Prodrug (%) ([3]; 240 min): 26%
